Target: T1, HsOMT (Hpm5) (Hypomyces subiculosus, UniProt B3FWS1)
T1 sequence (B3FWS1 1-398): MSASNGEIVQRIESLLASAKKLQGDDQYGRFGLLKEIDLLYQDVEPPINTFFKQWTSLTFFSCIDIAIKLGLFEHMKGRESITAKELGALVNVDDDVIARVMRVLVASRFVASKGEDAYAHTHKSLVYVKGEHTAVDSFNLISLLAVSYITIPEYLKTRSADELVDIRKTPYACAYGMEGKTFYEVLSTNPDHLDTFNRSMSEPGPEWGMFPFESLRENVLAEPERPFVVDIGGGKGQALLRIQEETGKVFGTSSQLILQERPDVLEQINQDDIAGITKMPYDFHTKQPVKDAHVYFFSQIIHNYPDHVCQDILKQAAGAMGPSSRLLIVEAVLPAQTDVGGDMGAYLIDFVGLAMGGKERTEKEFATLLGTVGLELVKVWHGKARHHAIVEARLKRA
Assay: biocatalytic O-methylation in S. cerevisiae expressing HsOMT, LC-MS
Format: cell-based
Conditions: native substrate; OH-5 (para) methylation to 5-O-methyl-DHZ

C[C@H]1C/C=C/[C@@H](O)CCC/C=C/c2cc(O)cc(O)c2C(=O)O1 [compound 3, DHZ]
biocatalytic O-methylation in S. cerevisiae expressing HsOMT, LC-MS: methylates the C-5 phenolic hydroxyl of the RAL14
